Experimental findings from publication PMC5270475, “Structural Characterization and Ligand/Inhibitor Identification Provide Functional Insights into the Mycobacterium tuberculosis Cytochrome P450 CYP126A1” (The Journal of Biological Chemistry, 2016) are described below.

One may read the Kd as the concentration at which binding is half-saturated.

Molecules are shown by their SMILES.

T1 sequence (P9WPN9 whole entry): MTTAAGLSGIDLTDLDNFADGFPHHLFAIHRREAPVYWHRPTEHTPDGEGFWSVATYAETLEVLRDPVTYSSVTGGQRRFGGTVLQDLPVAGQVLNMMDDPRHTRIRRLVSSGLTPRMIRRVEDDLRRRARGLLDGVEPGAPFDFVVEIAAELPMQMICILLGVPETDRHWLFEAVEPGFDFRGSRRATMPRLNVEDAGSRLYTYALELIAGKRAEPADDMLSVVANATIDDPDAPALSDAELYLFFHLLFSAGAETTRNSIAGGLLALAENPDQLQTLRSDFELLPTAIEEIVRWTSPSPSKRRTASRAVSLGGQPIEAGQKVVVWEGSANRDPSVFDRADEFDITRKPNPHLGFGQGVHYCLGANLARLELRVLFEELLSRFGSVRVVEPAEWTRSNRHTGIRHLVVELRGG

The experiment has as its target T1, CYP126A1 (Mycobacterium tuberculosis, UniProt P9WPN9).
T1 construct: gene cyp126
Put plainly: UV-visible absorbance titration (heme Soret shift). It is filed as binding. As to conditions: read-out: Kd.
Take `COc1ccc(-c2noc(CN(C(=O)Cc3ccc([N+](=O)[O-])cc3)C(C)C)n2)cc1` [compound 1, N-isopropyl-N-((3-(4-methoxyphenyl)-1,2,4-oxadiazol-5-yl)methyl)-2-(4-nitrophenyl)acetamide]: the Kd was determined as 18.3 ± 1.3 µM. Take `O=C1CCCC2Oc3c(cc(NS(=O)(=O)c4ccc([N+](=O)[O-])cc4)c4ccccc34)C12` (stereo not drawn) [compound 2, Compound 2]: the dissociation constant (Kd) turned out to be 2.85 ± 0.15 µM. To `Cc1ccc(NC(=O)c2cccc3nc4ccccc4nc23)cc1` [compound 3, Compound 3] belongs 56.1 ± 2.2 µM; to `O=C1CC(N2CCN(Cc3ccc4c(c3)OCO4)CC2)C(=O)N1Cc1ccc(Cl)cc1` (stereo not drawn) [compound 4, 3-(4-(benzo[d][1,3]dioxol-5-ylmethyl)piperazin-1-yl)-1-(4-chlorobenzyl)pyrrolidine-2,5-dione], 65.2 ± 6.6 µM; to `Cc1cccc(CSc2ncc(Cl)c(C(=O)Nc3nnc(C)s3)n2)c1` [compound 5, Compound 5], 6.15 ± 0.31 µM.

As to `O=C(Nc1nc2ccc(F)cc2s1)c1nc(SCc2ccccc2F)ncc1Cl` [compound 6, Compound 6], the Kd came out at 25.3 ± 0.5 µM.
